{"source": "paper PMC5448077", "about": "“Development of an orally available inhibitor of CLK1 for skipping a mutated dystrophin exon in Duchenne muscular dystrophy” (Scientific Reports, 2017)", "assay_in_all_cases": "biochemical", "key": {"AKT2": {"target": "AKT2 (Homo sapiens, UniProt P31751)", "how_it_was_run": "(§1)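 Reactions at room temperature in HEPES buffer (20 mM, pH 7.5, 0.01% Triton X-100, 2 mM DTT) lasted 1 or 5 h depending on kinase, with substrate peptide and ATP-metal. Phosphorylation read by electrophoretic mobility shift or IMAP polarization; kinase activity computed as P/(P + S).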"}, "ALK(C1156Y)": {"target": "ALK(C1156Y) (Homo sapiens, UniProt Q9UM73, C1156Y)", "sequence (Q9UM73 whole entry C1156Y)": "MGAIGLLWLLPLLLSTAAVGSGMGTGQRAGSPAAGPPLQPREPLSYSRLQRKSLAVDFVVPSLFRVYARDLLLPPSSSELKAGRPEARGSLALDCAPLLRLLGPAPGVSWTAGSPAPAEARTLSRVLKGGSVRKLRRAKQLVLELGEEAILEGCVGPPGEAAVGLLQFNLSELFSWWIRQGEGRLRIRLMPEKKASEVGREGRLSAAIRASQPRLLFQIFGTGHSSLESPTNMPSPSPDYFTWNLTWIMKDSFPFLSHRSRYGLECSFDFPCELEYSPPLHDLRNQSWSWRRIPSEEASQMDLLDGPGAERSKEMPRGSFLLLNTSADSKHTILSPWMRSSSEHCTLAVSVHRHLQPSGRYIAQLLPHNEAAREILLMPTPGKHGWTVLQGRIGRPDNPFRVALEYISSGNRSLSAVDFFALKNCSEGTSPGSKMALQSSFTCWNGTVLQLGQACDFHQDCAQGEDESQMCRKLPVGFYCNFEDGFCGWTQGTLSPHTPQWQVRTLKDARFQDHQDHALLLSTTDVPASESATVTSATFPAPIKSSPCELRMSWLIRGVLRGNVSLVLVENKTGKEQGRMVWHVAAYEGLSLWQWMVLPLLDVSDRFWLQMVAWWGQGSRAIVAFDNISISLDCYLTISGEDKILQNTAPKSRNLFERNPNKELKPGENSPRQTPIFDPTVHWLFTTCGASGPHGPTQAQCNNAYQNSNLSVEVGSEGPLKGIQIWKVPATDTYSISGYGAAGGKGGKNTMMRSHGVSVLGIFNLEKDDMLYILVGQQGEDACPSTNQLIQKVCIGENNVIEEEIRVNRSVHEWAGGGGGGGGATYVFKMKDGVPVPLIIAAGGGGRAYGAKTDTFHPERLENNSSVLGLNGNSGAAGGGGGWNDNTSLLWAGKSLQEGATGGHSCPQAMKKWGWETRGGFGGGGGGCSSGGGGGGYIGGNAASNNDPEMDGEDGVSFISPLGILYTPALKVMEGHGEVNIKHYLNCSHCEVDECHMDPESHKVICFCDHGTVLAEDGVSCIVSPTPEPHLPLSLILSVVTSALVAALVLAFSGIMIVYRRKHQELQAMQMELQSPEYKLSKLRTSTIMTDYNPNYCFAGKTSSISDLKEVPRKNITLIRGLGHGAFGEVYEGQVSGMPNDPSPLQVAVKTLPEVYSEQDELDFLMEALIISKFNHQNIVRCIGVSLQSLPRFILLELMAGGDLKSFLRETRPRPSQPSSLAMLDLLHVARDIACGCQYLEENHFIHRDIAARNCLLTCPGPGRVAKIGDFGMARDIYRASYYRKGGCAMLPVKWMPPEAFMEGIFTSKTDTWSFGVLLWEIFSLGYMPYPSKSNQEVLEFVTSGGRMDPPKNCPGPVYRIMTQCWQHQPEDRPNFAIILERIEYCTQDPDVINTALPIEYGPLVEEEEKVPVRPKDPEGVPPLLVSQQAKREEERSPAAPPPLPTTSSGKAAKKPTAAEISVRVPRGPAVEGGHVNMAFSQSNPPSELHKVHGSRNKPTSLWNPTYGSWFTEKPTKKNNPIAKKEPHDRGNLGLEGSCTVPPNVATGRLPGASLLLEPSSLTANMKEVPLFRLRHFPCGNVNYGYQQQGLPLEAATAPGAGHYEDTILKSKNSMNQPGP", "how_it_was_run": "as §1"}, "BLK": {"target": "BLK (Homo sapiens, UniProt P51451)", "how_it_was_run": "as §1"}, "CDK2/CycE1": {"target": "CDK2/CycE1 (Homo sapiens, UniProt P24941)", "how_it_was_run": "as §1"}, "CK1γ3": {"target": "T1, CK1γ3 (Homo sapiens, UniProt Q9Y6M4)", "T1 construct": "gene CSNK1G3", "how_it_was_run": "as §1"}, "CaMK2γ": {"target": "T2, CaMK2γ (Homo sapiens, UniProt Q13555)", "T2 construct": "gene CAMK2G", "how_it_was_run": "as §1"}, "CaMK2δ": {"target": "T3, CaMK2δ (Homo sapiens, UniProt Q13557)", "T3 construct": "gene CAMK2D", "how_it_was_run": "as §1"}, "EPHA5": {"target": "EPHA5 (Homo sapiens, UniProt P54756)", "how_it_was_run": "as §1"}, "FGFR3(K650E)": {"target": "FGFR3(K650E) (Homo sapiens, UniProt P22607, K650E)", "how_it_was_run": "as §1"}, "HIPK1": {"target": "HIPK1 (Homo sapiens, UniProt Q86Z02)", "how_it_was_run": "as §1"}, "HIPK3": {"target": "HIPK3 (Homo sapiens, UniProt Q9H422)", "how_it_was_run": "as §1"}, "IRR": {"target": "T4, IRR (Homo sapiens, UniProt P14616)", "T4 construct": "gene INSRR", "how_it_was_run": "as §1"}, "JNK2": {"target": "T5, JNK2 (Homo sapiens, UniProt P45984)", "T5 construct": "gene MAPK9", "how_it_was_run": "as §1"}, "JNK3": {"target": "T6, JNK3 (Homo sapiens, UniProt P53779)", "T6 construct": "gene MAPK10", "how_it_was_run": "as §1"}, "KIT(D816E)": {"target": "KIT(D816E) (Homo sapiens, UniProt P10721, D816E)", "how_it_was_run": "as §1"}, "MET": {"target": "MET (Homo sapiens, UniProt P08581)", "how_it_was_run": "as §1"}, "MST1": {"target": "T7, MST1 (Homo sapiens, UniProt Q13043)", "T7 construct": "gene STK4", "T7 sequence (Q13043 whole entry)": "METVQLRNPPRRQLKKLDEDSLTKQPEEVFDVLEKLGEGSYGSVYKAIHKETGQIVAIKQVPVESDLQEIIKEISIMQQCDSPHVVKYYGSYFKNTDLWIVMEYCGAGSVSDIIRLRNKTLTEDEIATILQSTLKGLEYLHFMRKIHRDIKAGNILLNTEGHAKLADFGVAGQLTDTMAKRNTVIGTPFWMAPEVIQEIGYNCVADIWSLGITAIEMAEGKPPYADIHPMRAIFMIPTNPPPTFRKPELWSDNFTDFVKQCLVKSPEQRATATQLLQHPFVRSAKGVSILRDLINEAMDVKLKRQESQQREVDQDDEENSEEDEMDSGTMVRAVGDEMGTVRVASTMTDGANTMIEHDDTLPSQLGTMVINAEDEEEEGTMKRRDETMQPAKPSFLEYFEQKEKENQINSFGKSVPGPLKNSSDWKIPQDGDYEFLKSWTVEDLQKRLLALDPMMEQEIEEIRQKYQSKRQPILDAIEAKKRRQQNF", "how_it_was_run": "as §1"}, "MST4": {"target": "T8, MST4 (Homo sapiens, UniProt Q9P289)", "T8 construct": "gene STK26", "T8 sequence (Q9P289 whole entry)": "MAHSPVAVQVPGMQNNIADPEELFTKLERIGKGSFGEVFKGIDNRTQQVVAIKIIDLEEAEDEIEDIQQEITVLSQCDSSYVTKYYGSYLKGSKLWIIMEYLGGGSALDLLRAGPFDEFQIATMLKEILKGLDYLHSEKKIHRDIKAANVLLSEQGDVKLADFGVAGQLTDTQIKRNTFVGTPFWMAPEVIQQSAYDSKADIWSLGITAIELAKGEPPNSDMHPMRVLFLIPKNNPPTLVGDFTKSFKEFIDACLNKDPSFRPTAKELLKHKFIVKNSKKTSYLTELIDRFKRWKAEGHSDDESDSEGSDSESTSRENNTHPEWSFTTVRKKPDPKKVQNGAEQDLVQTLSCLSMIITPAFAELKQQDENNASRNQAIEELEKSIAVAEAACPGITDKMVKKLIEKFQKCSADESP", "how_it_was_run": "as §1"}, "PDHK2": {"target": "T9, PDHK2 (Homo sapiens, UniProt Q15119)", "T9 construct": "gene PDK2", "how_it_was_run": "as §1"}, "PDHK4": {"target": "T10, PDHK4 (Homo sapiens, UniProt Q16654)", "T10 construct": "gene PDK4", "T10 sequence (Q16654 whole entry)": "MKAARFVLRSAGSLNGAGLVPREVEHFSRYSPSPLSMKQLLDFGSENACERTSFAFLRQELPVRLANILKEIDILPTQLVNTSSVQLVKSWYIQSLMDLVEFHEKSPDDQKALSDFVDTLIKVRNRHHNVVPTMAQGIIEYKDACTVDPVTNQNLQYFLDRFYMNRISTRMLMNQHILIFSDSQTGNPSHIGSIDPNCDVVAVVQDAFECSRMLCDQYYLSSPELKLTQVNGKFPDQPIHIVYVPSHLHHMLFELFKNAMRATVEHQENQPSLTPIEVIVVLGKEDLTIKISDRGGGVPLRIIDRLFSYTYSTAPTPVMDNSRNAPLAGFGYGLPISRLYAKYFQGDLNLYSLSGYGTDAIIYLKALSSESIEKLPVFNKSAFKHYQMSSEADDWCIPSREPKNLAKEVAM", "how_it_was_run": "as §1"}, "PEK": {"target": "T11, PEK (Homo sapiens, UniProt Q9NZJ5)", "T11 construct": "gene EIF2AK3", "how_it_was_run": "as §1"}, "PGK": {"target": "T12, PGK (Homo sapiens, UniProt Q13976)", "T12 construct": "gene PRKG1", "how_it_was_run": "as §1"}, "PKACβ": {"target": "T13, PKACβ (Homo sapiens, UniProt P22694)", "T13 construct": "gene PRKACB", "how_it_was_run": "as §1"}, "PRKX": {"target": "PRKX (Homo sapiens, UniProt P51817)", "how_it_was_run": "as §1"}, "SIK": {"target": "T14, SIK (Homo sapiens, UniProt P57059)", "T14 construct": "gene SIK1", "T14 sequence (P57059 whole entry)": "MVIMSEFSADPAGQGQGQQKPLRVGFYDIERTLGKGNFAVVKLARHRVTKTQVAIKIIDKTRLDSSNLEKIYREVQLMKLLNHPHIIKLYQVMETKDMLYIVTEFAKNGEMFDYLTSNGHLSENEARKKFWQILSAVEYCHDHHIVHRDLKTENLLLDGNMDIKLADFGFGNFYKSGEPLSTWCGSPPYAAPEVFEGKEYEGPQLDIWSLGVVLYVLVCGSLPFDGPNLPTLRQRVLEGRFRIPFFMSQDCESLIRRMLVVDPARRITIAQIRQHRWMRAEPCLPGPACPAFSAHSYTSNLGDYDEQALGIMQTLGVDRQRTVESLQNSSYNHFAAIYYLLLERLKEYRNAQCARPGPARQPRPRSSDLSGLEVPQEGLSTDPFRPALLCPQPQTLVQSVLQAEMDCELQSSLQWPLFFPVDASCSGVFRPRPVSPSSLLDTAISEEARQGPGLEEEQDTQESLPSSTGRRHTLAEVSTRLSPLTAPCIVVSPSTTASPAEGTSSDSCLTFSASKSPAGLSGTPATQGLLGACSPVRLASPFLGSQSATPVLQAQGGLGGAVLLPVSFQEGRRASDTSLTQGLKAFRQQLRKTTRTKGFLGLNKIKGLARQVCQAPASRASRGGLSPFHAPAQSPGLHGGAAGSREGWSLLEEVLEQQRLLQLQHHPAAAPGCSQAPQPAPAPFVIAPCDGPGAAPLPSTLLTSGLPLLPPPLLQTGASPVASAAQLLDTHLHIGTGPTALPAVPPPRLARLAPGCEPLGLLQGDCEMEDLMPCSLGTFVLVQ", "how_it_was_run": "as §1"}, "SLK": {"target": "SLK (Homo sapiens, UniProt Q9H2G2)", "how_it_was_run": "as §1"}, "SRPK1": {"target": "SRPK1 (Homo sapiens, UniProt Q96SB4)", "how_it_was_run": "as §1"}, "TRKB": {"target": "T15, TRKB (Homo sapiens, UniProt Q16620)", "T15 construct": "gene NTRK2", "T15 sequence (Q16620 whole entry)": "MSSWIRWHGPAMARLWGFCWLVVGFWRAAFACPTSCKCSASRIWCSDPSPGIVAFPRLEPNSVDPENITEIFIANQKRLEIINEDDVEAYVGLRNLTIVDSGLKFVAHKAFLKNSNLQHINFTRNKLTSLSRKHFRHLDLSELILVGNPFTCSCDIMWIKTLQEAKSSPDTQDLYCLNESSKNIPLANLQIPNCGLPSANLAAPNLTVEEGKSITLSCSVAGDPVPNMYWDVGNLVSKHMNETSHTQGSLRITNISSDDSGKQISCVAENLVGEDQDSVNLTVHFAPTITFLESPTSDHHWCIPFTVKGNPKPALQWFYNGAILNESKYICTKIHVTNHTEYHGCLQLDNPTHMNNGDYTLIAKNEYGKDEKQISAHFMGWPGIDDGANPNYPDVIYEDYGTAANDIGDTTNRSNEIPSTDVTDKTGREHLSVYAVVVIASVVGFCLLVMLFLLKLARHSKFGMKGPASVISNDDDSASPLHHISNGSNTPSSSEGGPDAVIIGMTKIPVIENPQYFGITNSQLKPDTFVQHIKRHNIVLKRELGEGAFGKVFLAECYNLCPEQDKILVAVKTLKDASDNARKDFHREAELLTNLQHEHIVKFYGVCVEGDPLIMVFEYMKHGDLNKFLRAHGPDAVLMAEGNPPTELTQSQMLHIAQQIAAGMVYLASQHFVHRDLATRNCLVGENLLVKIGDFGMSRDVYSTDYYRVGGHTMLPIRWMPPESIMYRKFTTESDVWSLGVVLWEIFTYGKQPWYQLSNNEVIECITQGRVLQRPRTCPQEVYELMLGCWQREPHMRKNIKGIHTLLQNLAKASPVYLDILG", "how_it_was_run": "as §1"}, "TRKC": {"target": "T16, TRKC (Homo sapiens, UniProt Q16288)", "T16 construct": "gene NTRK3", "how_it_was_run": "as §1"}, "TYRO3": {"target": "TYRO3 (Homo sapiens, UniProt Q06418)", "how_it_was_run": "as §1"}, "p38γ": {"target": "T17, p38γ (Homo sapiens, UniProt P53778)", "T17 construct": "gene MAPK12", "T17 sequence (P53778 whole entry)": "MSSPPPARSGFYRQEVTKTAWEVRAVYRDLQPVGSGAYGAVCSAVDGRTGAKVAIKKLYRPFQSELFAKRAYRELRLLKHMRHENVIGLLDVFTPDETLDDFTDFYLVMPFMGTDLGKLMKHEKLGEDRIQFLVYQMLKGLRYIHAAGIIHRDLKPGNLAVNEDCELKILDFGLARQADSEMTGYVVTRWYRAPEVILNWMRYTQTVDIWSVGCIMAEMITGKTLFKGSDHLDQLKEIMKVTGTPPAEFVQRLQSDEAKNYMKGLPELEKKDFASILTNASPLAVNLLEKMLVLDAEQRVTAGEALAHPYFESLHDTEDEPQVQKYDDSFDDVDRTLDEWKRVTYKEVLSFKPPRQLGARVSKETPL", "how_it_was_run": "as §1"}}}
{"smiles": "c1cc(-c2ccc3[nH]ncc3c2)ccn1", "note": "[TG693, 5-(4-pyridinyl)-1H-indazole]", "values": [{"measurement": "inhibition at 1 µM", "setting": "AKT2", "result": -3, "unit": "%"}, {"measurement": "inhibition at 1 µM", "setting": "ALK(C1156Y)", "result": 0.1, "unit": "%"}, {"measurement": "inhibition at 1 µM", "setting": "BLK", "result": -2.2, "unit": "%"}, {"measurement": "inhibition at 1 µM", "setting": "CDK2/CycE1", "result": 18.1, "unit": "%"}, {"measurement": "inhibition at 1 µM", "setting": "CK1γ3", "result": -7.7, "unit": "%"}, {"measurement": "inhibition at 1 µM", "setting": "CaMK2γ", "result": -2.4, "unit": "%"}, {"measurement": "inhibition at 1 µM", "setting": "CaMK2δ", "result": 1.4, "unit": "%"}, {"measurement": "inhibition at 1 µM", "setting": "EPHA5", "result": -7.5, "unit": "%"}, {"measurement": "inhibition at 1 µM", "setting": "FGFR3(K650E)", "result": 5.2, "unit": "%"}, {"measurement": "inhibition at 1 µM", "setting": "HIPK1", "result": -3.5, "unit": "%"}, {"measurement": "inhibition at 1 µM", "setting": "HIPK3", "result": -0.7, "unit": "%"}, {"measurement": "inhibition at 1 µM", "setting": "IRR", "result": 3, "unit": "%"}, {"measurement": "inhibition at 1 µM", "setting": "JNK2", "result": -5.9, "unit": "%"}, {"measurement": "inhibition at 1 µM", "setting": "JNK3", "result": -4.4, "unit": "%"}, {"measurement": "inhibition at 1 µM", "setting": "KIT(D816E)", "result": -6.8, "unit": "%"}, {"measurement": "inhibition at 1 µM", "setting": "MET", "result": 13.2, "unit": "%"}, {"measurement": "inhibition at 1 µM", "setting": "MST1", "result": -1.9, "unit": "%"}, {"measurement": "inhibition at 1 µM", "setting": "MST4", "result": 4.1, "unit": "%"}, {"measurement": "inhibition at 1 µM", "setting": "PDHK2", "result": -0.8, "unit": "%"}, {"measurement": "inhibition at 1 µM", "setting": "PDHK4", "result": 3.1, "unit": "%"}, {"measurement": "inhibition at 1 µM", "setting": "PEK", "result": 5, "unit": "%"}, {"measurement": "inhibition at 1 µM", "setting": "PGK", "result": 11, "unit": "%"}, {"measurement": "inhibition at 1 µM", "setting": "PKACβ", "result": 3.1, "unit": "%"}, {"measurement": "inhibition at 1 µM", "setting": "PRKX", "result": 12.2, "unit": "%"}, {"measurement": "inhibition at 1 µM", "setting": "SIK", "result": 3.2, "unit": "%"}, {"measurement": "inhibition at 1 µM", "setting": "SLK", "result": 1.2, "unit": "%"}, {"measurement": "inhibition at 1 µM", "setting": "SRPK1", "result": 0.6, "unit": "%"}, {"measurement": "inhibition at 1 µM", "setting": "TRKB", "result": 0.1, "unit": "%"}, {"measurement": "inhibition at 1 µM", "setting": "TRKC", "result": 7.7, "unit": "%"}, {"measurement": "inhibition at 1 µM", "setting": "TYRO3", "result": 0.3, "unit": "%"}, {"measurement": "inhibition at 1 µM", "setting": "p38γ", "result": 1.4, "unit": "%"}]}
